In patent US7541380B2, “Use of rapamycin and structural analogues thereof” (Universita' Degli Studi do Ferrara, priority 2002, dated 2009):

Legend:
mRNA for gamma-globin [1] = experiment: Quantitative RT-PCR of mRNA for gamma-globin in human erythroid precursors isolated from peripheral blood (two-stage culture of Fibach et al.); format: cell-based; details: for mRNA for gamma-globin (increase compared with untreated control erythroid precursors): rapamycin 3 μM, hydroxyurea 120 μM, control = 1
From the text: In order to check whether rapamycin was capable, in addition to inducing K562 cell differentiation, of stimulating the production of mRNA for gamma-globin in human erythroid precursors isolated from peripheral blood, the technique published by Fibach et al. (19, 20) was used. This technique provides for two stages: in the first stage, the cells isolated from peripheral blood of a subject who is healthy or suffering from a haemopoietic pathology, such as sickle cell anaemia or beta-thalassaemia, are sown in a culture medium to which 10% of conditioned medium derived from the vesicle carcinoma cell line 5637 has been added. The second stage consists in cultivating the isolated cells in a suitable culture medium, supplemented by the erythropoietin hormone, 30% foetal bovine serum, 2-mercaptoethanol, albumin, glutamine and desamethasone in order to permit the proliferation and maturing of stem cells of the erythroid type. In this stage the cells can be treated with potential HbF inducers.

mRNA for gamma-globin [2] = experiment: Quantitative RT-PCR of mRNA for gamma-globin in K562 cells; format: cell-based, human; details: 20 nM, 6 days of induction, control = 1
Description: (§1) The level of differentiation was evaluated by analysing the positive reaction of the cells to benzidine (3). […] The production of haemoglobin was evaluated by electrophoresis on cellulose acetate and by staining the gel with a solution based on benzidine/H2O2 (3). […] The expression of genes coding for gamma-globins was evaluated by quantitative RT-PCR (reverse transcriptase PCR) (3).

human cell line K562 [3] = experiment: Haemoglobin production in K562 cells by electrophoresis on cellulose acetate and benzidine/H2O2 staining; format: cell-based; details: K562 cells treated with rapamycin
Description: as §1

human cell cultures = experiment: Cytotoxic effect in human cell cultures; format: cell-based; details: compared with hydroxyurea
Description: The activity of rapamycin as an inducer of erythroid cell differentiation and the production of mRNA for gamma-globin was evaluated in human cell cultures. The results of this study are illustrated in the Tables given in the section relating to the Examples.

human cell line K562 [4] = experiment: Erythroid differentiation of K562 cells (benzidine-positive cells); details: 20 nM, mean ± SD of 6 experiments, control 4.1%
Description: as §1

Row | Compound | mRNA for gamma-globin (increase compared with untreated control erythroid precursors) (mRNA for gamma-globin [1]) | mRNA for gamma-globin (increase compared with untreated control K562 cells) (mRNA for gamma-globin [2]) | Chief haemoglobin produced (human cell line K562 [3]) | Increase in the production of mRNA for gamma-globin compared with the same untreated cells (mRNA for gamma-globin [1]) [times] | Cytotoxic effect (human cell cultures) | Erythroid differentiation = percentage of K562 cells that react positively to benzidine (human cell line K562 [4]) [%] | Erythroid differentiation = percentage of K562 cells that react positively to benzidine (human cell line K562 [4]; listed as rapamycin)
1 | NC(=O)NO [Hydroxyurea, hydroxyurea] | 2.25 | – | – | – | – | – | –
2 | CO[C@H]1C[C@@H]2CC[C@@H](C)[C@@](O)(O2)C(=O)C(=O)N2CCCC[C@H]2C(=O)O[C@H]([C@H](C)C[C@@H]2CC[C@@H](O)[C@H](OC)C2)CC(=O)[C@H](C)/C=C(\C)[C@@H](O)[C@@H](OC)C(=O)[C@H](C)C[C@H](C)/C=C/C=C/C=C/1C [Rapamycin, rapamycin] | 3.73 | 2.4 | Hb Portland (alpha2gamma2) | 3.75 | much lower than that of hydroxyurea | 45.5 ± 5.8 | 40-45%
